Results taken from patent US8530490B2, “Uracil compound or salt thereof having human deoxyuridine triphosphatase inhibitory activity” (Taiho Pharmaceutical Co., Ltd., priority 2008, dated 2013).
pIC50: −log10 of the molar value.

Target: human dUTPase (Homo sapiens (Human), UniProt P33316)
Test: Human dUTPase inhibitory effect: production of [5-3H]dUMP from [5-3H]dUTP, measured by HPLC with flow scintillation
Type: biochemical
Conditions: [5-3H]dUMP production from [5-3H]dUTP, 37° C., 15 minutes
Method in brief: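 E. coli-expressed purified human dUTPase reacted with 1 μM dUTP stock containing [5-3H]dUTP in Tris pH 7.4, MgCl2, 2-mercaptoethanol and albumin, 15 min at 37° C; stopped by 1 min at 100° C. [5-3H]dUMP formed was separated by reversed-phase ion-pair HPLC and quantified by flow scintillation versus water control.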

Chain of human dUTPase (P33316 94-252): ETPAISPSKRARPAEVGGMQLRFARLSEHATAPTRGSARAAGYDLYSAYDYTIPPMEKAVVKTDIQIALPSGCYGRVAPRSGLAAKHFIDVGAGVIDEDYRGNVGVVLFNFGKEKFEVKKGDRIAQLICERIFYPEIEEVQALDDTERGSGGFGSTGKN

Compound	pIC50
CC[C@@](O)(CNS(=O)(=O)CCCn1ccc(=O)[nH]c1=O)c1ccc(F)c(OC2CCCC2)c1 [Example 99, (S)—N-(2-(3-(cyclopentyloxy)-4-fluorophenyl)-2-hydroxybutyl)-3-(2,4-dioxo-3,4-dihydroxypyrimidin-1(2H)-yl)propane-1-sulfonamide]	5.74
C[C@@H](NS(=O)(=O)CC/C=C/Cn1ccc(=O)[nH]c1=O)c1cccc(OC2CCCC2)c1 [Example 105, (R,E)-N-(1-(3-(cyclopentyloxy)phenyl)ethyl)-5-(2,4-dioxo-3,4-dihydropyrimidin-1(2H)-yl)pent-3-ene-1-sulfonamide]	6.77
C[C@@H](NS(=O)(=O)CCCn1ccc(=O)[nH]c1=O)c1cccc(OCC(F)F)c1 [Example 107, (R)—N-(1-(3-(2,2-difluoroethoxy)phenyl)ethyl)-3-(2,4-dioxo-3,4-dihydropyrimidin-1(2H)-yl)propane-1-sulfonamide]	5.76
C[C@@H](NS(=O)(=O)CCCn1ccc(=O)[nH]c1=O)c1cccc(OCC2CC2)c1 [Example 108, (R)—N-(1-(3-(cyclopropylmethoxy)phenyl)ethyl)-3-(2,4-dioxo-3,4-dihydropyrimidin-1(2H)-yl)propane-1-sulfonamide]	5.77
C[C@@H](NS(=O)(=O)CC/C=C/Cn1ccc(=O)[nH]c1=O)c1cccc(OCC2CC2)c1 [Example 110, (R,E)-N-(1-(3-(cyclopropylmethoxy)phenyl)ethyl)-5-(2,4-dioxo-3,4-dihydropyrimidin-1(2H)-yl)pent-3-ene-1-sulfonamide]	7.30
O=c1ccn(CCCS(=O)(=O)NC(c2ccccc2)c2ccccc2)c(=O)[nH]1 [Example 111, N-benzhydryl-3-(2,4-dioxo-3,4-dihydropyrimidin-1(2H)-yl)propane-1-sulfonamide]	5.08
O=c1ccn(CCCS(=O)(=O)NC(c2ccccc2)c2cccc(OCC3CC3)c2)c(=O)[nH]1 (stereo not drawn) [Example 112, N-((3-(cyclopropylmethoxy)phenyl)(phenyl)methyl)-3-(2,4-dioxo-3,4-dihydropyrimidin-1(2H)-yl)propane-1-sulfonamide]	5.65
CC[C@@H](NS(=O)(=O)CCCn1ccc(=O)[nH]c1=O)c1ccccc1 [Example 118, (R)-3-(2,4-dioxo-3,4-dihydropyrimidin-1(2H)-yl)-N-(1-phenylpropyl)propane-1-sulfonamide]	5.01
CN(CC1(c2ccccc2)CC1)S(=O)(=O)CCCn1ccc(=O)[nH]c1=O [Example 133, 3-(2,4-dioxo-3,4-dihydropyrimidin-1(2H)-yl)-N-methyl-N-((1-phenylcyclopropyl)methyl)propane-1-sulfonamide]	5.18
CN(CCc1cccc(OCC2CC2)c1)S(=O)(=O)CCCn1ccc(=O)[nH]c1=O [Example 134, N-(3-(cyclopropylmethoxy)phenethyl)-3-(2,4-dioxo-3,4-dihydropyrimidin-1(2H)-yl)-N-methylpropane-1-sulfonamide]	5.34
COc1cccc(S(=O)(=O)NC(C)(C)CCCOCn2ccc(=O)[nH]c2=O)c1 [Example 135, N-(5-((2,4-dioxo-3,4-dihydropyrimidin-1(2H)-yl)methoxy)-2-methylpentan-2-yl)-3-methoxybenzenesulfonamide]	5.95
CC(C)(CCCOCn1ccc(=O)[nH]c1=O)NS(=O)(=O)c1ccc(Cl)cc1 [Example 136, 4-chloro-N-(5-((2,4-dioxo-3,4-dihydropyrimidin-1(2H)-yl)methoxy)-2-methylpentan-2-yl)benzenesulfonamide]	5.40
CC(C)(CCCOCn1ccc(=O)[nH]c1=O)NS(=O)(=O)c1ccc(Cl)c(Cl)c1 [Example 137, 3,4-dichloro-N-(5-((2,4-dioxo-3,4-dihydropyrimidin-1(2H)-yl)methoxy)-2-methylpentan-2-yl)benzenesulfonamide]	5.69
CC(C)(CCCOCn1ccc(=O)[nH]c1=O)NS(=O)(=O)c1cc(Cl)c(Cl)s1 [Example 138, 4,5-dichloro-N-(5-((2,4-dioxo-3,4-dihydropyrimidin-1(2H)-yl)methoxy)-2-methylpentan-2-yl)thiophene-2-sulfonamide]	5.41
CC(C)(CCCOCn1ccc(=O)[nH]c1=O)NS(=O)(=O)c1cc(Cl)cc(Cl)c1 [Example 139, 3,5-dichloro-N-(5-((2,4-dioxo-3,4-dihydropyrimidin-1(2H)-yl)methoxy)-2-methylpentan-2-yl)benzenesulfonamide]	5.30
CC(C)(CCCOCn1ccc(=O)[nH]c1=O)NS(=O)(=O)c1cccc(Br)c1 [Example 141, 3-bromo-N-(5-((2,4-dioxo-3,4-dihydropyrimidin-1(2H)-yl)methoxy)-2-methylpentan-2-yl)benzenesulfonamide]	5.36
CC(C)(CCCOCn1ccc(=O)[nH]c1=O)NS(=O)(=O)c1ccccc1Cl [Example 142, 2-chloro-N-(5-((2,4-dioxo-3,4-dihydropyrimidin-1(2H)-yl)methoxy)-2-methylpentan-2-yl)benzenesulfonamide]	5.12

Further compounds by rising pIC50, results first:

pIC50	Compound
5.84	C[C@@H](NS(=O)(=O)CCCn1ccc(=O)[nH]c1=O)c1cccc(OC2CCCC2)c1 [Example 104, (R)—N-(1-(3-(cyclopentyloxy)phenyl)ethyl)-3-(2,4-dioxo-3,4-dihydropyrimidin-1(2H)-yl)propane-1-sulfonamide]
6.18	C[C@@H](NS(=O)(=O)CCCn1ccc(=O)[nH]c1=O)c1ccc(F)c(OCC2CC2)c1 [Example 98, (R)—N-(1-(3-(cyclopropylmethoxy)-4-fluorophenyl)ethyl)-3-(2,4-dioxo-3,4-dihydropyrimidin-1(2H)-yl)propane-1-sulfonamide]
6.24	CC[C@@H](NS(=O)(=O)c1ccc(Cn2ccc(=O)[nH]c2=O)cc1)c1ccc(F)c(OCC2CC2)c1 [Example 97, (R)—N-(1-(3-(cyclopropylmethoxy)-4-fluorophenyl)propyl)-4-((2,4-dioxo-3,4-dihydropyrimidin-1(2H)-yl)methyl)benzenesulfonamide]
6.24	O=c1ccn(CCCS(=O)(=O)N[C@H](c2ccc(F)cc2)c2cccc(OCC3CC3)c2)c(=O)[nH]1 [Example 114, (R)—N-((3-(cyclopropylmethoxy)phenyl)(4-fluorophenyl)methyl)-3-(2,4-dioxo-3,4-dihydropyrimidin-1(2H)-yl)propane-1-sulfonamide]
6.28	O=c1ccn(CCCCCS(=O)(=O)NCc2cccc(OCC3CC3)c2)c(=O)[nH]1 [Example 103, N-(3-(cyclopropylmethoxy)benzyl)-5-(2,4-dioxo-3,4-dihydropyrimidin-1(2H)-yl)pentane-1-sulfonamide]
6.32	O=c1ccn(CCCS(=O)(=O)N2CCC[C@@H]2C(O)(c2ccccc2)c2ccccc2)c(=O)[nH]1 [Example 130, (R)-1-(3-(2-(hydroxydiphenylmethyl)pyrrolidin-1-ylsulfonyl)propyl)pyrimidine-2,4(1H, 3H)-dione]
6.39	O=c1ccn(C/C=C/CCS(=O)(=O)NCc2cccc(OCC3CC3)c2)c(=O)[nH]1 [Example 113, (E)-N-(3-(cyclopropylmethoxy)benzyl)-5-(2,4-dioxo-3,4-dihydropyrimidin-1(2H)-yl)pent-3-ene-1-sulfonamide]
6.40	O=c1ccn(CCCS(=O)(=O)N2CCC[C@@H]2C(O)(c2ccc(F)cc2)c2ccc(F)cc2)c(=O)[nH]1 [Example 131, (R)-1-(3-(2-(bis(4-fluorophenyl)(hydroxy)methyl)pyrrolidin-1-ylsulfonyl)propyl)pyrimidine-2,4(1H, 3H)-dione]
6.42	O=c1ccn(CCCS(=O)(=O)N2CCC[C@@H]2C(O)(c2cccc(F)c2)c2cccc(F)c2)c(=O)[nH]1 [Example 132, (R)-1-(3-(2-(bis(3-fluorophenyl)(hydroxy)methyl)pyrrolidin-1-ylsulfonyl)propyl)pyrimidine-2,4(1H, 3H)-dione]
6.46	O=c1ccn(CCCS(=O)(=O)N[C@H](c2ccc(F)cc2)c2ccc(F)c(OCC3CC3)c2)c(=O)[nH]1 [Example 116, (R)—N-((3-(cyclopropylmethoxy)-4-fluorophenyl)(4-fluorophenyl)methyl)-3-(2,4-dioxo-3,4-dihydropyrimidin-1(2H)-yl)propane-1-sulfonamide]
6.57	O=c1ccn(CC2CCN(S(=O)(=O)NCc3cccc(OCC4CC4)c3)CC2)c(=O)[nH]1 [Example 128, N-(3-(cyclopropylmethoxy)benzyl)-4-((2,4-dioxo-3,4-dihydropyrimidin-1(2H)-yl)methyl)piperidine-1-sulfonamide]
6.60	CC[C@@H](NS(=O)(=O)CCCn1ccc(=O)[nH]c1=O)c1ccc(F)c(OCC2CC2)c1 [Example 115, (R)—N-(1-(3-(cyclopropylmethoxy)-4-fluorophenyl)propyl)-3-(2,4-dioxo-3,4-dihydropyrimidin-1(2H)-yl)propane-1-sulfonamide]
6.92	C[C@@H](NS(=O)(=O)CCCCCn1ccc(=O)[nH]c1=O)c1cccc(OC2CCCC2)c1 [Example 106, (R)—N-(1-(3-(cyclopentyloxy)phenyl)ethyl)-5-(2,4-dioxo-3,4-dihydropyrimidin-1(2H)-yl)pentane-1-sulfonamide]
6.92	C[C@@H](NS(=O)(=O)CCCCCn1ccc(=O)[nH]c1=O)c1cccc(OCC2CC2)c1 [Example 109, (R)—N-(1-(3-(cyclopropylmethoxy)phenyl)ethyl)-5-(2,4-dioxo-3,4-dihydropyrimidin-1(2H)-yl)pentane-1-sulfonamide]
7.15	C[C@@H](NS(=O)(=O)CCCCCn1ccc(=O)[nH]c1=O)c1ccc(F)c(OCC2CC2)c1 [Example 101, (R)—N-(1-(3-(cyclopropylmethoxy)-4-fluorophenyl)ethyl)-5-(2,4-dioxo-3,4-dihydropyrimidin-1(2H)-yl)pentane-1-sulfonamide]
7.40	C[C@@H](NS(=O)(=O)CC/C=C/Cn1ccc(=O)[nH]c1=O)c1ccc(F)c(OCC2CC2)c1 [Example 100, (R,E)-N-(1-(3-(cyclopropylmethoxy)-4-fluorophenyl)ethyl)-5-(2,4-dioxo-3,4-dihydropyrimidin-1(2H)-yl)pent-3-ene-1-sulfonamide]
